How the values were obtained:
[1] = test system: LPS induced TNF-α response; experiment: In vivo screening model of LPS induced TNF-α response in mice; details: Mus musculus, mice (C3H/HeN), dosed 1 hour prior to LPS, plasma TNF-α 80-90 minutes after LPS, vs LPS treated control group, read-out: In vivo inhibition of LPS induced TNF-α production (in %)
Procedure: In Vivo Screening Model of LPS Induced TNF-α Response in Mice
To study the effect of compounds of the present invention in vivo, an in vivo screening model of LPS induced TNF-α response in mice was set up as follows: Groups of 6 mice (C3H/HeN, female, about 8 weeks (20 g), Bomholtgaard) were dosed with test compounds in suspension vehicle 1 hour prior to LPS administration (LPS from E. coli 055:B5, L-4005, Sigma). At time 0, the mice were dosed ip with 1.0 mg LPS/kg. After anesthetization with Hypnorm/Dormicum, the mice were bled from the periorbital venous plexus 80-90 minutes after LPS administration. The blood samples were sampled in EDTA stabilised tubes and centrifuged at 4000 rpm for 10 minutes at 4° C. The plasma level of TNF-α was analysed by ELISA. Compound 156 of WO 98/32730 was used as reference compound. The plasma level of TNF-α was determined using a sandwich ELISA. Microtiter plates were coated with a monoclonal antibody against mouse TNF-α, washed and blocked with a casein buffer. Samples of mouse TNF-α recombinant standards were added to the wells of the microtiter plates and incubated. All standards were tested in triplicate, all plasma samples in single. After sample and standard incubation, the plates were washed and incubated with biotinylated polyclonal secondary antibody against mouse TNF-α and washed. Enzyme conjugate was added to all wells and incubated. Substrate was added and the enzyme/substrate reaction stopped after 15 minutes at room temperature with 1M H2SO4. The colour development (OD) was measured at 450 nm on an ELISA reader and the background OD at 620 nm was subtracted. […] The results of the tested compounds are indicated as a percentage inhibition compared to an LPS treated control group. Compounds were tested at 10 mg/kg. The Mann-Whitney test was used to compare drug treated groups to the LPS treated control group (p<0.05).

[2] = test system: IL-1β; experiment: Inhibition of IL-1β secretion in LPS stimulated peripheral blood mononuclear cells; format: cell-based; details: PBMC; LPS stimulated human peripheral blood mononuclear cells, 18 hours, ELISA; read-out: The median inhibition concentration (IC50, nM) of IL-1β
Procedure: (§1) To study the effect of compounds of the present invention in vitro, the inhibition of IL-1β and TNF-α secretion was determined using the following procedure:
(§2) Cytokine production was measured in the media from lipopolysaccharide (LPS) stimulated peripheral blood mononuclear cells. The mononuclear cells were isolated from human peripheral blood by Lymphoprep® (Nycomed, Norway) fractionation and suspended in RPMI 1640 (growth medium) with foetal calf serum (FCS, 2%), at a concentration of 5×10^5 cells/ml. The cells were incubated in 24-well tissue culture plates in 1 ml aliquots. Test compounds were dissolved in dimethylsulfoxide (DMSO, 10 mM) and were diluted with the medium. Compounds were added to the cells for 30 minutes, then LPS ([…] final concentration) was added. The plates were incubated for 18 hours, and the concentration of IL-β and TNF-α in the medium was determined by enzyme-linked immunosorbent assays. The median inhibitory concentrations (IC50) of the compounds were calculated.

[3] = test system: TNF-α; experiment: Inhibition of TNF-α secretion in LPS stimulated peripheral blood mononuclear cells; format: cell-based; details: PBMC; LPS stimulated human peripheral blood mononuclear cells, 18 hours, ELISA; read-out: The median inhibition concentration (IC50, nM) of TNF-α
Procedure: as §1, §2

SMILES: Cc1cc(F)ccc1Nc1ccc(C(=O)c2cc(C(=O)NCC3CCCO3)ccc2C)c(Cl)c1 (stereo not drawn) [Compound 104, 3-[2-Chloro-4-(4-fluoro-2-methylphenylamino)benzoyl]-4-methyl-N-(tetrahydrofuran-2-ylmethyl)benzamide]
- inhibition at 10 mg/kg [1]: 95%
- IC50 [2]: 2 nM
- IC50 [3]: 1.3 nM

SMILES: Cc1ccc(C(=O)NCCO)cc1C(=O)c1ccc(Nc2ccc(Br)cc2N)cc1Cl [Compound 113, 3-[4-(2-Amino-4-bromophenylamino)-2-chlorobenzoyl]-N-(2-hydroxyethyl)-4-methylbenzamide]
- inhibition at 10 mg/kg [1]: 83%
- IC50 [2]: 4 nM
- IC50 [3]: 1.8 nM

SMILES: Cc1cc(Br)ccc1Nc1ccc(C(=O)c2cc(C(=O)NCCO)ccc2C)c(Cl)c1 [Compound 114, 3-[4-(4-Bromo-2-methylphenylamino)-2-chlorobenzoyl]-N-(2-hydroxyethyl)-4-methylbenzamide]
- inhibition at 10 mg/kg [1]: 72%
- IC50 [2]: 2.5 nM
- IC50 [3]: 0.4 nM

SMILES: Cc1ccc(C(=O)NCCO)cc1C(=O)c1ccc(Nc2ccc(F)cc2F)cc1Cl [Compound 115, 3-[2-Chloro-4-(2,4-difluorophenylamino)benzoyl]-N-(2-hydroxyethyl)-4-methylbenzamide]
- inhibition at 10 mg/kg [1]: 96%
- IC50 [2]: 1.3 nM
- IC50 [3]: 0.3 nM

SMILES: COCCNC(=O)c1ccc(C)c(C(=O)c2ccc(Nc3ccccc3N)cc2Cl)c1 [Compound 116, 3-[4-(2-Aminophenylamino)-2-chlorobenzoyl]-N-(2-methoxyethyl)-4-methylbenzamide]
- inhibition at 10 mg/kg [1]: 95%
- IC50 [2]: 1 nM
- IC50 [3]: 1 nM

SMILES: CCNC(=O)c1ccc(C)c(C(=O)c2ccc(Nc3ccccc3N)cc2Cl)c1 [Compound 117, 3-[4-(2-Aminophenylamino)-2-chlorobenzoyl]-N-ethyl-4-methylbenzamide]
- inhibition at 10 mg/kg [1]: 71%
- IC50 [2]: 4 nM
- IC50 [3]: 1 nM

SMILES: Cc1ccc(C(=O)NCCO)cc1C(=O)c1ccc(Nc2ccc(Cl)cc2F)cc1Cl [Compound 120, 3-[2-Chloro-4-(4-chloro-2-fluoro-phenylamino)-benzoyl]-N-(2-hydroxy-ethyl)-4-methyl-benzamide]
- inhibition at 10 mg/kg [1]: 86%
- IC50 [2]: 2.7 nM
- IC50 [3]: 2 nM

SMILES: CCOC(=O)CNC(=O)c1ccc(C)c(C(=O)c2ccc(Nc3ccc(Cl)cc3F)cc2Cl)c1 [Compound 123, {3-[2-Chloro-4-(4-chloro-2-fluoro-phenylamino)-benzoyl]-4-methyl-benzoylamino}acetic acid ethyl ester]
- inhibition at 10 mg/kg [1]: 47%
- IC50 [2]: 0.5 nM
- IC50 [3]: 0.3 nM

SMILES: CCNC(=O)c1ccc(C)c(C(=O)c2ccc(Nc3ccc(Cl)cc3F)cc2Cl)c1 [Compound 126, 3-[2-Chloro-4-(4-chloro-2-fluoro-phenylamino)-benzoyl]-N-ethyl-4-methyl-benzamide]
- inhibition at 10 mg/kg [1]: 79%
- IC50 [2]: 2.8 nM
- IC50 [3]: 0.6 nM

SMILES: Cc1ccc(C(=O)NCC(C)C)cc1C(=O)c1ccc(Nc2ccc(Cl)cc2F)cc1Cl [Compound 129, 3-[2-Chloro-4-(4-chloro-2-fluoro-phenylamino)-benzoyl]-N-isobutyl-4-methyl-benzamide]
- inhibition at 10 mg/kg [1]: 73%
- IC50 [2]: 2.5 nM
- IC50 [3]: 1.3 nM

SMILES: COCCCNC(=O)c1ccc(C)c(C(=O)c2ccc(Nc3ccc(Cl)cc3F)cc2Cl)c1 [Compound 131, 3-[2-Chloro-4-(4-chloro-2-fluoro-phenylamino)-benzoyl]-N-(3-methoxy-propyl)-4-methyl-benzamide]
- inhibition at 10 mg/kg [1]: 70%
- IC50 [2]: 3.2 nM
- IC50 [3]: 1.3 nM

SMILES: COc1ccc(C(=O)NCCO)cc1C(=O)c1ccc(Nc2ccc(F)cc2F)cc1Cl [Compound 140, 3-[2-Chloro-4-(2,4-difluoro-phenylamino)-benzoyl]-N-(2-hydroxy-ethyl)-4-methoxy-benzamide]
- inhibition at 10 mg/kg [1]: 76%
- IC50 [2]: 1.4 nM
- IC50 [3]: 1 nM

SMILES: COc1ccc(C(=O)NCC(F)F)cc1C(=O)c1ccc(Nc2ccc(F)cc2F)cc1Cl [Compound 141, 3-[2-Chloro-4-(2,4-difluoro-phenylamino)-benzoyl]-N-(2,2-difluoro-ethyl)-4-methoxy-benzamide]
- inhibition at 10 mg/kg [1]: 46%
- IC50 [2]: 0.9 nM
- IC50 [3]: 0.6 nM

SMILES: Cc1ccc(C(=O)NCC(N)=O)cc1C(=O)c1ccc(Nc2ccc(F)cc2F)cc1Cl [Compound 145, N-Carbamoylmethyl-3-[2-chloro-4-(2,4-difluoro-phenylamino)-benzoyl]-4-methyl-benzamide]
- inhibition at 10 mg/kg [1]: 94%
- IC50 [2]: 1.3 nM
- IC50 [3]: 0.3 nM

SMILES: Cc1ccc(C(=O)NCCF)cc1C(=O)c1ccc(Nc2ccc(F)cc2F)cc1Cl [Compound 147, 3-[2-Chloro-4-(2,4-difluoro-phenylamino)-benzoyl]-N-(2-fluoro-ethyl)-4-methyl-benzamide]
- inhibition at 10 mg/kg [1]: 89%
- IC50 [2]: 2.5 nM
- IC50 [3]: 0.8 nM

SMILES: Cc1ccc(C(=O)NCC(F)(F)F)cc1C(=O)c1ccc(Nc2ccc(F)cc2F)cc1Cl [Compound 148, 3-[2-Chloro-4-(2,4-difluoro-phenylamino)-benzoyl]-4-methyl-N-(2,2,2-trifluoro-ethyl) benzamide]
- inhibition at 10 mg/kg [1]: 71%
- IC50 [2]: 0.6 nM
- IC50 [3]: 0.2 nM

SMILES: CCNC(=O)c1ccc(C)c(C(=O)c2ccc(Nc3ccc(F)cc3F)cc2Cl)c1 [Compound 149, 3-[2-Chloro-4-(2,4-difluoro-phenylamino)-benzoyl]-N-ethyl-4-methyl-benzamide]
- inhibition at 10 mg/kg [1]: 89%
- IC50 [2]: 1.6 nM
- IC50 [3]: 0.5 nM

SMILES: Cc1ccc(C(=O)NCC(C)O)cc1C(=O)c1ccc(Nc2ccc(F)cc2F)cc1Cl (stereo not drawn) [Compound 151, 3-[2-Chloro-4-(2,4-difluoro-phenylamino)-benzoyl]-N-(2-hydroxy-propyl)-4-methyl-benzamide]
- inhibition at 10 mg/kg [1]: 99%
- IC50 [2]: 1.8 nM
- IC50 [3]: 0.4 nM

SMILES: Cc1ccc(C(=O)NCC(O)CO)cc1C(=O)c1ccc(Nc2ccc(F)cc2F)cc1Cl (stereo not drawn) [Compound 152, 3-[2-Chloro-4-(2,4-difluoro-phenylamino)-benzoyl]-N-(2,3-dihydroxy-propyl)-4-methyl-benzamide]
- inhibition at 10 mg/kg [1]: 99%
- IC50 [2]: 2.8 nM
- IC50 [3]: 0.6 nM

SMILES: Cc1ccc(-c2cccc(CO)c2)cc1C(=O)c1ccc(Nc2ccc(F)cc2F)cc1Cl [Compound 282, [2-Chloro-4-(2,4-difluoro-phenylamino)-phenyl]-(3′-hydroxymethyl-4-methyl-biphenyl-3-yl)-methanone]
- IC50 [2]: 5.6 nM
- IC50 [3]: 0.6 nM

SMILES: CC(=O)Nc1cccc(-c2ccc(C)c(C(=O)c3ccc(Nc4ccc(F)cc4F)cc3Cl)c2)c1 [Compound 285, N-{3′-[2-Chloro-4-(2,4-difluoro-phenylamino)-benzoyl]-4′-methyl-biphenyl-3-yl}-acetamide]
- IC50 [2]: 1.4 nM
- IC50 [3]: 0.6 nM

SMILES: COc1ccc(CO)cc1C(=O)c1ccc(Nc2ccc(F)cc2F)cc1Cl [Compound 335, [2-Chloro-4-(2,4-difluoro-phenylamino)-phenyl]-(5-hydroxymethyl-2-methoxy-phenyl)-methanone]
- IC50 [2]: 2.7 nM
- IC50 [3]: 2.5 nM

SMILES: COc1ccc(COC(C)=O)cc1C(=O)c1ccc(Nc2ccc(F)cc2F)cc1Cl [Compound 336, Acetic acid 3-[2-chloro-4-(2,4-difluoro-phenylamino)-benzoyl]-4-methoxy-benzyl ester]
- IC50 [2]: 5 nM
- IC50 [3]: 2 nM

SMILES: Cc1ccc(C(=O)O)cc1C(=O)c1ccc(Nc2ccc(F)cc2F)cc1Cl [Compound 424, 3-[2-Chloro-4-(2,4-difluorophenylamino)benzoyl]-4-methylbenzoic acid]
- inhibition at 10 mg/kg [1]: 44%

SMILES: Cc1ccccc1C(=O)c1ccc(Nc2ccccc2N)cc1Cl [Ref. comp. a, 4-(2-aminophenylamino)-2-chloro-2′-methylbenzophenone, reference compound]
- inhibition at 10 mg/kg [1]: 23%

SMILES: Cc1ccccc1C(=O)c1ccc(Nc2cccc(F)c2C)cc1Cl [Ref. comp. f, 2-Chloro-4-(3-fluoro-2-methyl-phenylamino)-2′-methylbenzophenone, reference compound]
- IC50 [2]: 13 nM
- IC50 [3]: 4 nM

From US7977387B2, “Aminobenzophenone compounds” (Leo Pharma A/S, priority 2003, dated 2011)
